We go through three molecules from US20080153791A1, “11Beta -Hydroxysteroid Dehydrogenases” (onpharm GmbH, priority 2005, published 2008).

SMILES strings stand for the structures. Where two headings read alike, the source gives them in different places. Some results are limits rather than exact numbers.

Test [1] deals with T1, human 11β-HSD1 (Homo sapiens, UniProt P28845).
T1 construct: expressed in transfected cells
The test can be described thus: 11β-HSD1 reductase activity (cortisone to cortisol) in lysates of stably transfected HEK-293 cells. The test is classed as biochemical. As to conditions: for remaining activity at 20 µM: 20 μM compound, 100 nM cortisone, HEK-293 cell lysates, read-out: 11β-HSD1 % of control. The method, then:
(§1) Cells were grown in 10 cm dishes to 80% confluence and incubated for 16 h in steroid-free medium (charcoal-treated fetal calf serum (FCS) from HyClone, Logan, Utah). Cells were rinsed once with phosphate-buffered saline (PBS), detached and centrifuged for 3 min at 150×g. The supernatant was removed and the cell pellet quick-frozen in a dry-ice ethanol bath. At the day of experiment, cell pellets were resuspended in buffer TS2 (100 mM NaCl, 1 mM EGTA, 1 mM EDTA, 1 mM MgCl2, 250 mM sucrose, 20 mM Tris-HCl, pH 7.4), sonicated and activities determined immediately. The rate of conversion of cortisol to cortisone or the reverse reaction was determined in 96-well optical PCR reaction plates (Applied Biosystems, Foster City, Calif.) in a final volume of 22 μl, and the tubes were capped during the reaction to avoid evaporation.
Reactions were initiated simultaneously by adding 10 μl of cell lysate and 12 μl of TS2 buffer containing the appropriate concentration of the inhibitory compound to be tested, NADPH, 30 nCi of [1,2,6,7-^3H]-cortisone and unlabeled cortisone, whereby final concentrations were 400 μM NADPH and 100 nM cortisone. Activities were determined immediately after cell disruption by measuring the conversion of radiolabeled cortisone to cortisol for 10 min.
(§2) Enzyme kinetics were analyzed by non-linear regression using Data Analysis Toolbox (MDL Information Systems Inc.) assuming first-order rate kinetics. Data represent mean ±SD of four to five independent experiments.
(§3) Assay with 20 μM of the corresponding compound in the reaction mixture, added simultaneously with the substrate:
(§4) Determination of IC50 values, using 7 different inhibitor concentrations at factor 2 intervals: […]

Test [2] deals with T2, human 11β-HSD2 (Homo sapiens, UniProt P80365).
T2 construct: expressed in transfected cells
T2 sequence (P80365 1-405): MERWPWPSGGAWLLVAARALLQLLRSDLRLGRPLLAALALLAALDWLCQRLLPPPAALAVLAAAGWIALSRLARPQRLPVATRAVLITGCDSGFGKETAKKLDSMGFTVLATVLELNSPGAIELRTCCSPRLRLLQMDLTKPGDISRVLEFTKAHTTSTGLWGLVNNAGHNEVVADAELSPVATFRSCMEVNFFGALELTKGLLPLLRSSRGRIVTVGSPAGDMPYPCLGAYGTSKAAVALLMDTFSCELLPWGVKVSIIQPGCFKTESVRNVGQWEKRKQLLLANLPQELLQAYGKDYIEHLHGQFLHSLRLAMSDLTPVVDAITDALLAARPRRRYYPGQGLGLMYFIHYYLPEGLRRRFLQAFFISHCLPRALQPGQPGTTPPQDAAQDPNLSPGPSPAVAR
The test can be described thus: 11β-HSD2 oxidase activity (cortisol to cortisone) in lysates of stably transfected HEK-293 cells. The test is classed as biochemical. Particulars: for remaining activity at 20 µM: 20 μM compound, 25 nM cortisol, HEK-293 cell lysates, read-out: 11β-HSD2 % of control; for IC50: cell lysates, 7 inhibitor concentrations at factor 2 intervals. The procedure: as §1
Reactions were initiated by simultaneously adding 10 μl of cell lysate and 12 μl of TS2 buffer containing the appropriate concentration of the inhibitory compound to be tested, NAD^+, 30 nCi of [1,2,6,7-^3H]-cortisol and unlabeled cortisol. […] Stock solutions of the inhibitors in methanol or DMSO were diluted in TS2 buffer to yield the appropriate concentrations, whereby the concentration of methanol or DMSO in the reactions were kept below 0.1%. Control reactions with or without 0.1% of the solvent were performed. Incubation was at 37° C. for 10 min with shaking, reactions were terminated by adding 10 μl of stop solution containing 2 mM of unlabeled cortisol and cortisone dissolved in methanol. The conversion of radiolabeled cortisol was determined by separation of cortisol and cortisone using TLC and a solvent system of 9:1 (v/v) chloroform:methanol, followed by scintillation counting.
as §2, §3, §4

The target of test [3] is T1, human 11β-HSD1. The test can be described thus: 11β-HSD1 activity in intact transfected HEK-293 cells. It counts as cell-based. The procedure: (§5) Human 11β-HSD1 and 11β-HSD2 activities were assessed in intact stably transfected HEK-293 cells. Per well of a 96-well plate 30,000 cells were seeded, followed by growth for 24 h in steroid-free DMEM medium. The total volume was 30 μl and contained 100 nM of radiolabeled cortisol or cortisone as substrate and the corresponding inhibitor at a final concentration between 0-200 μM. The reaction was performed in steroid-free medium in the absence of exogenous cofactor for 1 to 3 h at 37° C. The solvent was below 0.1% (DMSO). Reactions were stopped by adding unlabeled cortisol and cortisone dissolved in methanol (2 mM final). Steroids were separated by TLC and conversion determined by scintillation counting.
as §2

Test [4] concerns the target T3, 17β-HSD1 (Homo sapiens, UniProt P14061).
T3 sequence (P14061 1-328): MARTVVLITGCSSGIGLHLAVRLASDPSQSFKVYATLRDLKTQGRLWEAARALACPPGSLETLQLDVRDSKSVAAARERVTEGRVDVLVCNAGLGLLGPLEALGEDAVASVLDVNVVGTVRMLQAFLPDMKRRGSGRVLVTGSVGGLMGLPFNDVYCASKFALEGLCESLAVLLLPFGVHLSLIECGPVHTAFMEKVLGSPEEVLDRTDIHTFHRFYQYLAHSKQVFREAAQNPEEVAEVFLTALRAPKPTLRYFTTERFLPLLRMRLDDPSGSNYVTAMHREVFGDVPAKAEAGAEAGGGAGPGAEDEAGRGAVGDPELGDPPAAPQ
The test can be described thus: Inhibition of 17β-HSD1. It counts as biochemical.

For test [5], the target named is T4, 17β-HSD2 (Homo sapiens, UniProt P37059).
T4 sequence (P37059 1-387): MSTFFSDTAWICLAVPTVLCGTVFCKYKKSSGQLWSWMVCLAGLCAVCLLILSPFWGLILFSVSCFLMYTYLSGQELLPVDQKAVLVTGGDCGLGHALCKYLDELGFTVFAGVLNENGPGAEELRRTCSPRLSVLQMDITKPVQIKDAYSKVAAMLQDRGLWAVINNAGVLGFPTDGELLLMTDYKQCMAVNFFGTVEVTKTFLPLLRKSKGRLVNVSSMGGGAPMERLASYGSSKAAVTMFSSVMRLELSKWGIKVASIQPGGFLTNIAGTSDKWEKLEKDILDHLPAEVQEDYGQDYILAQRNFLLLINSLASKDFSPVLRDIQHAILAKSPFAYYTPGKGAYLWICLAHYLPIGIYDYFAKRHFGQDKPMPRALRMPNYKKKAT
The test can be described thus: Inhibition of 17β-HSD2. It counts as biochemical.

Test [6] addresses T2, human 11β-HSD2. The test can be described thus: 11β-HSD2 activity in intact transfected HEK-293 cells. It counts as cell-based. As to conditions: read-out: IC50 for 11β-HSD2 (determined in intact transfected HEK-293 cells). The procedure: as §5, §2
Test [7] addresses T1, human 11β-HSD1. The test can be described thus: 11β-HSD1 reductase activity (cortisone to cortisol) in lysates of stably transfected HEK-293 cells. As to conditions: read-out: 11β-HSD1 % of control. It counts as biochemical.

T1 sequence (P28845 whole entry): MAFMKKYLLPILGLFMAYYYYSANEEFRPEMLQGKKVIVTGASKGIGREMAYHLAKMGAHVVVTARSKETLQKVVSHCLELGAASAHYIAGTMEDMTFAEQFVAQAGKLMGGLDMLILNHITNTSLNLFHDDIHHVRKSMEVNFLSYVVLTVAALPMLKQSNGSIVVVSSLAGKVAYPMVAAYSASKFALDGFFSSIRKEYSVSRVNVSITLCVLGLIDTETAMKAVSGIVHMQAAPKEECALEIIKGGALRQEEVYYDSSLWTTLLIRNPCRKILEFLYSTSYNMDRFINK

For the molecule `COc1ccc(CCNC(=O)C23CCC(C)(C(=O)C2=O)C3(C)C)cc1OC` (stereo not shown) [BNW7, 4,7,7-Trimethyl-2,3-dioxo-bicyclo[2.2.1]heptane-1-carboxylic acid [2-(3,4-dimethoxy-phenyl)-ethyl]-amide], the remaining activity at 20 µM amounted to 9.6% in test [1] and 140% in test [2]. Further, the IC50 stood at 1.95 µM in test [1] (cell lysates, 7 inhibitor concentrations at factor 2 intervals, experiment 1, read-out: IC 50 11β-HSD1, determination 1); 1.91 µM in test [1] (cell lysates, 7 inhibitor concentrations at factor 2 intervals, experiment 2, read-out: IC 50 11β-HSD1, determination 2); 2.24 µM in test [1] (cell lysates, 7 inhibitor concentrations at factor 2 intervals, experiment 3, read-out: IC 50 11β-HSD1, determination 3); 0.55 ± 0.05 µM in test [3] (11β-HSD1, intact HEK-293 cells, mean ± SD, read-out: IC50 in intact cells). Moreover, the “inhibition of 11β-HSD2 (in words)” value in test [2] is listed as “did not inhibit”; in test [2] (listed as 7) it was “no inhibition”. In addition, the “inhibition of 17β-HSD1 (in words)” value in test [4] is on record as “did not inhibit”; in test [4] (listed as 7), “no inhibition”. In addition, the entries for the “inhibition of 17β-HSD2 (in words)” value in test [5] and in test [5] (listed as 7) were “did not inhibit” and “no inhibition”, respectively.
For `CC(=O)OC1CC[C@]2(C)C3=C(C(=O)C[C@H]2C1(C)C)[C@]1(C)CCC(C(C)CCC(=O)O)[C@@]1(C)CC3=O` (stereo partly drawn) [BNW16, 4-((5R,10S,13R,14R)-3-Acetoxy-4,4,10,13,14-pentamethyl-7,11-dioxo-2,3,4,5,6,7,10,11,12,13,14,15,16,17-tetradecahydro-1H-cyclopenta[a]phenanthren-17-yl)-pentanoic acid], the remaining activity at 20 µM in test [1] worked out at 2.7%; in test [2], 27.4%. The IC50 in test [1] (IC 50 11β-HSD1, determination 1) turned out to be 0.149 µM; in test [1] (IC 50 11β-HSD1, determination 2) it was 0.168 µM; in test [1] (IC 50 11β-HSD1, determination 3), 0.114 µM; in test [2] (experiment 2, read-out: IC 50 11β-HSD2, determination 2), 4.04 µM; in test [2] (experiment 3, read-out: IC 50 11β-HSD2, determination 3), 3.87 µM; in test [3], 2.32 ± 0.33 µM. Besides, the IC50 in test [3] (text b14, read-out: IC50 for 11β-HSD1 determined in intact transfected HEK-293 cells) is 0.41 ± 0.08 µM; in test [6] it was above 50 µM; in test [4], above 30 µM; in test [5], 28.3 ± 5.5 µM. For the same molecule, in test [2], the “inhibition of 11β-HSD2 (in words)” value was “no inhibition”. In addition, the “inhibition of 17β-HSD1 (in words)” value in test [4] is “no inhibition”. In addition, in test [5], the “inhibition of 17β-HSD2 (in words)” value is listed as “no inhibition”.
As to `CC1(C)[C@@H](OC(=O)CCC(=O)O)CC[C@]2(C)[C@H]3C(=O)C=C4[C@@H]5C[C@@](C)(C(=O)O)CC[C@]5(C)CC[C@@]4(C)[C@]3(C)CC[C@@H]12` [CBX, carbenoxolone], the remaining activity at 10 µM in test [7] was 4.4%.
